Consider 2 molecules from patent publication US11926583B2, “Stabilized 1, 25-dihydroxyvitamin D2 and method of making same” (CYTOCHROMA INC., priority 2008, dated 2024).

The structures appear in SMILES notation.

The nature of this data set: Accelerated stability testing at 60° C., purity by HPLC. In kind it is physicochemical. To be noted: for Purity (absolute %) / Purity (% of initial amount): At 60° C. On the procedure: The HPLC analysis can suitably follow the parameters in Table 2 below.
Samples of stabilized 1,25-dihydroxyvitamin D2 according to Example 1 and commercially-obtained 1,25-dihydroxyvitamin D2 (SAFC, Madison, Wis. USA) made by crystallization from methyl formate were placed in a 60° C. oven in several 2 ml amber vials with Teflon-lined caps. Samples were taken out at different time points and purity was checked by HPLC according to Example 1. The results are presented in Tables 3 and 4 below and in FIGS. 1 and 2. […] The stabilized material prepared according to the Example 1 will clearly have advantage when any heat is required during formulation.

Turning to `C=C1/C(=C\C=C2/CCC[C@]3(C)[C@@H]([C@H](C)/C=C/[C@H](C)C(C)(C)O)CC[C@@H]23)C[C@@H](O)C[C@@H]1O` [Commercial, 1,25-dihydroxyvitamin D2], the “Purity (absolute %)” value was determined as 96.80% (0 h); 95.18% (4 h); 94.98% (8 h); 94.69% (16 h); 93.98% (24 h); 93.86% (48 h). In addition, the “Purity (absolute %)” value (72 h) was 93.82%. Besides, the “Purity (% of initial amount)” value runs as follows: (4 h) 98.33%; (8 h) 98.12%; (16 h) 97.82%; (24 h) 97.09%; (48 h) 96.97%; (72 h) 96.92%. Further, under “Initial %”, the “Purity (% of initial amount)” value was found to be 100%.

As to `C=C1/C(=C\C=C2/CCC[C@]3(C)[C@@H]([C@H](C)/C=C/[C@H](C)C(C)(C)O)CC[C@@H]23)C[C@@H](O)C[C@@H]1O` [Example 1, 1,25-dihydroxyvitamin D2], the “Stability compared to commercially available material containing residual methyl formate” value (60° C., up to 72 hours) is reported as “surprisingly more stable”. In addition, the “Purity (absolute %)” value by setting is: (0 h) 99.40%; (4 h) 99.38%; (8 h) 99.42%; (16 h) 99.33%; (24 h) 99.42%; (48 h) 99.31%. Besides, where the note is “72 h”, the “Purity (absolute %)” value amounted to 98.89%. Further, the “Purity (% of initial amount)” value is given as 99.98% (4 h); 100% (8 h); 99.93% (16 h); 100% (24 h); 99.90% (48 h); 99.50% (72 h).
